Source: patent US20250073164A1, “IONIZABLE DISULFIDE LIPIDS AND LIPID NANOPARTICLES DERIVED THEREFROM” (PROVIDENCE THERAPEUTICS HOLDINGS INC., priority 2021, published 2025)

Key:
[1] = Lipids stability characterized by 1H NMR; type: physicochemical; design: key: +: the lipid is stable; Minor: the main characteristic peaks of the lipid are present, no major change of the ^1H NMR spectrum is observed, but some extra peaks appearance observed; Major: main the characteristic peaks of the lipid underwent transformation, some peaks can be missing or decreased in intensity, impurity peaks either increased in size or represent main peaks, as observed on ^1H NMR
Procedure: The lipids stability was evaluated by ^1H NMR at −20° C. and at room temperature. “+” means the lipid is stable, “Minor” means the main characteristic peaks of the lipid are present, no major change of the ^1H NMR spectrum is observed, but some extra peaks appearance observed. “Major” means main the characteristic peaks of the lipid underwent transformation, some peaks can be missing or decreased in intensity, impurity peaks either increased in size or represent main peaks, as observed on ^1H NMR. “n.d.” means “not determined”.

[2] = Surface pKa of LNPs, TNS fluorescence assay; type: physicochemical; conditions: LNPs formed with the ionizable lipid, pH at 50% LNP protonation
Procedure: The surface pKa values of LNPs were determined as follows. Briefly, solutions of 100 mM citrate buffer at, 100 mM Tris-HCl and 50 mM sodium bicarbonate-sodium hydroxide buffer were titrated to pH values varying by 1 from 3.0 to 11.0 and aliquoted into a clear 96-well plate. LNPs and 2-(p-toluidinyl)naphthalene-6-sulfonic acid (TNS) were diluted into these solutions to obtain a final concentration of 20 μM lipid and 6 μM TNS, respectively. Fluorescence intensity was read on a Glowmax discover plate reader at an excitation of 322 nm and an emission of 430 nm. pKa values were calculated as the pH corresponding to 50% LNP protonation, assuming minimum and maximum fluorescence values corresponded to zero and 100% protonation, respectively.

[3] = test system: gp33 and gp34 specific T-cells; experiment: In vivo activity of LNPs: specific CD8 T-cells expansion in mice; conditions: LNPs prepared using the compound, payload 3-GP mRNA (epitopes encoding gp33/34)
Procedure: LNPs prepared using compounds 100, 105, 106 and 109 respectively were evaluated for specific CD8 T-cells expansion in mice where the payload is 3-GP mRNA (comprising epitopes encoding gp33/34).

| SMILES | Lipids stability characterized by 1H NMR, Room Temperature 1 week ([1]; room temperature) | Lipids stability characterized by 1H NMR, Room Temperature 2 months ([1]; room temperature) | Lipids stability characterized by 1H NMR, Room Temperature 2 weeks ([1]; room temperature) | Lipids stability characterized by 1H NMR, Room Temperature 3 months ([1]; room temperature, 3 months) | Lipids stability characterized by 1H NMR, Room Temperature 3 weeks ([1]; room temperature) | Lipids stability characterized by 1H NMR, Room Temperature 4 weeks ([1]; room temperature) | Lipids stability characterized by 1H NMR, At −20° C. ([1]; 3 months) | Surface pKa [2] | specific CD8 T-cells expansion [3] |
| --- | --- | --- | --- | --- | --- | --- | --- | --- | --- |
| CCCCCCCCCCCCCCC(/C=C(\C)CCC=C(C)C)OC(=O)CSSCC(=O)OCCCN(C)C (centres unmarked) [Compound 100] | + | Major | Minor | Major | Minor | Minor | + | 7.5 | effective at expanding both gp33 and gp34 specific T-cells |
| CCCCC/C=C\CCC(CCCCCCCCCCCCCC)C(CCCCCCCCCCCCCC)OC(=O)CCSSCCC(=O)OCCCN(C)C (centres unmarked) [Compound 109, 3-(dimethylamino)propyl-3-[[3-[2-[(Z)-non-3-enyl]-1-tetradecyl-hexadeoxy]-3-oxo-propyl]disulfanyl]propanoate] | + | + | + |  | + | + | + | 7.0 | effective at expanding both gp33 and gp34 specific T-cells |
